Data reported in patent US20250163038A1, “CBL-B MODULATORS AND USES THEREOF” (Nimbus Clio, Inc., priority 2021, published 2025).

How the values were obtained:
[1] = molecular target: T1, Recombinant human c-Cbl (aa 47-435) (Homo sapiens, UniProt P22681); test: c-Cbl Biochemical Assay (TR-FRET); conditions: hc-Cbl Biochemical Assay (TR-FRET); read-out: TR-FRET hcCbl IC50
T1 sequence (P22681 47-435): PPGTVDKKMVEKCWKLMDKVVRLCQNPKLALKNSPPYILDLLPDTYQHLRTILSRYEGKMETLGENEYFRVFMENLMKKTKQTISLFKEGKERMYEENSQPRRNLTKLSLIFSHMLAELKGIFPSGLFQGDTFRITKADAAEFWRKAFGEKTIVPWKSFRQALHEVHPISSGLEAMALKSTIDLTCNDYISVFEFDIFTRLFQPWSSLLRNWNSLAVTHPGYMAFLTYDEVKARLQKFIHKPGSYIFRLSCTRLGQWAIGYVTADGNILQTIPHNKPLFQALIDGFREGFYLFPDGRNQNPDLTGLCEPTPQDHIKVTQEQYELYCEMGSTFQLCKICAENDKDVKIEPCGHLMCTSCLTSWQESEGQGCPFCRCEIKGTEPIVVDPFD

[2] = molecular target: Recombinant human Cbl-b (aa 36-427) (Homo sapiens, UniProt Q13191); test: Cbl-b Biochemical Assay (TR-FRET); conditions: read-out: TR-FRET hCbl-b IC50
[3] = tested on: Jurkat (clone E6-1) cells with NFAT luciferase reporter; test: Jurkat reporter assay (NFAT Luciferase); format: cell-based; conditions: Homo sapiens; Jurkat NFAT luciferase reporter cells, anti-CD3 stimulation, 6 hr; read-out: Jurkat NFAT EC50

Sequence of Recombinant human Cbl-b (aa 36-427) (Q13191 36-427): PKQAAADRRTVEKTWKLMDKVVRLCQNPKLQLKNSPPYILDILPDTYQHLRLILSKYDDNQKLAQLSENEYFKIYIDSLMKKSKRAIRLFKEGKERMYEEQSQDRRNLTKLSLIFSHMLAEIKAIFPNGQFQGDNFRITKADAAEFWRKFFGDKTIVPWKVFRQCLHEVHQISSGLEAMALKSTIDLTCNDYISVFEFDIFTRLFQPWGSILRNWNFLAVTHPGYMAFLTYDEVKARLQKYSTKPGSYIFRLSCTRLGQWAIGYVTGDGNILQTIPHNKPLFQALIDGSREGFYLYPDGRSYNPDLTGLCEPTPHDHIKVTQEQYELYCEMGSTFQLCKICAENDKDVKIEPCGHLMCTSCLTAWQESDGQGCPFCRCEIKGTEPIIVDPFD

Cn1cnnc1-c1cc(F)ccc1-c1cccc(-c2nc3cc(CN[C@@H]4CCC[C@@H]4O)c(F)c(F)c3o2)c1 [HX-8, (1S,2R)-2-(((6,7-Difluoro-2-(4′-fluoro-2′-(4-methyl-4H-1,2,4-triazol-3-yl)-[1,1′-biphenyl]-3-yl)benzo[d]oxazol-5-yl)methyl)amino)cyclopentan-1-ol]
IC50 [1]: < 200 nM | IC50 [2]: < 200 nM | EC50 [3]: < 200 nM

Cc1cc(CN(C)[C@@H]2CCC[C@@H]2O)cc2nc(-c3cccc(-c4ccc(F)cc4-c4nncn4C)c3)oc12 [HY-3, (1S,2R)-2-(((2-(4′-Fluoro-2′-(4-methyl-4H-1,2,4-triazol-3-yl)-[1,1′-biphenyl]-3-yl)-7-methylbenzo[d]oxazol-5-yl)methyl)(methyl)amino)cyclopentan-1-ol]
IC50 [1]: < 200 nM | IC50 [2]: < 200 nM | EC50 [3]: 200 to 1000 nM

Cn1cnnc1-c1cc(F)ccc1-c1cccc(-c2nc3cc(NCCN4CCC4)cc(C(F)(F)F)c3o2)c1 [HZ-2, N-(2-(Azetidin-1-yl)ethyl)-2-(4′-fluoro-2′-(4-methyl-4H-1,2,4-triazol-3-yl)-[1,1′-biphenyl]-3-yl)-7-(trifluoromethyl)benzo[d]oxazol-5-amine]
IC50 [1]: 200 to 1000 nM | IC50 [2]: < 200 nM | EC50 [3]: 1000 to 10000 nM

CN(Cc1cc(C(F)(F)F)c2oc(-c3cccc(-c4ccc(F)cc4-c4nncn4C)c3)nc2c1)CC1(O)CCC1 [IA-1, 1-((((2-(4′-Fluoro-2′-(4-methyl-4H-1,2,4-triazol-3-yl)-[1,1′-biphenyl]-3-yl)-7-(trifluoromethyl)benzo[d]oxazol-5-yl)methyl)(methyl)amino)methyl)cyclobutan-1-ol]
IC50 [1]: < 200 nM | IC50 [2]: < 200 nM | EC50 [3]: < 200 nM

Cn1cnnc1-c1cc(F)ccc1-c1cccc(-c2nc3nc(CN[C@@H]4CCC[C@@H]4O)ccc3o2)c1 [IB-7, (1S,2R)-2-(((2-(4′-Fluoro-2′-(4-methyl-4H-1,2,4-triazol-3-yl)-[1,1′-biphenyl]-3-yl)oxazolo[4,5-b]pyridin-5-yl)methyl)amino)cyclopentan-1-ol]
IC50 [1]: 200 to 1000 nM | IC50 [2]: < 200 nM | EC50 [3]: 1000 to 10000 nM

Cc1cc(CNCC2(F)CCC2)cc2nc(-c3cccc(-c4ccc(F)cc4-c4nncn4C)c3)oc12 [IC-1, 1-(2-(4′-Fluoro-2′-(4-methyl-4H-1,2,4-triazol-3-yl)-[1,1′-biphenyl]-3-yl)-7-methylbenzo[d]oxazol-5-yl)-N-((1-fluorocyclobutyl)methyl)methanamine]
IC50 [1]: < 200 nM | IC50 [2]: < 200 nM | EC50 [3]: 200 to 1000 nM

CN(Cc1cc(C(F)(F)F)c2[nH]c(-c3cccc(-c4ccc(F)cc4-c4nncn4C)c3)nc2c1)[C@@H]1CCC[C@@H]1O [ID-3, (1S,2R)-2-(((2-(4′-Fluoro-2′-(4-methyl-4H-1,2,4-triazol-3-yl)-[1,1′-biphenyl]-3-yl)-7-(trifluoromethyl)-1H-benzo[d]imidazol-5-yl)methyl)(methyl)amino)cyclopentan-1-ol]
IC50 [1]: < 200 nM | IC50 [2]: < 200 nM | EC50 [3]: < 200 nM

CN(Cc1cc(C(F)(F)F)c2oc(-c3cccc(-c4ccc(F)cc4-c4nncn4C)c3)nc2c1)CC1CCC1 [IE-1, 1-Cyclobutyl-N-((2-(4′-fluoro-2′-(4-methyl-4H-1,2,4-triazol-3-yl)-[1,1′-biphenyl]-3-yl)-7-(trifluoromethyl)benzo[d]oxazol-5-yl)methyl)-N-methylmethanamine]
IC50 [1]: 200 to 1000 nM | IC50 [2]: < 200 nM | EC50 [3]: 200 to 1000 nM

Cn1cnnc1-c1cc(F)ccc1-c1cccc(-c2nc3cc(NCCN4CC(F)(F)C4)cc(C(F)(F)F)c3o2)c1 [IF-2, N-(2-(3,3-Difluoroazetidin-1-yl)ethyl)-2-(4′-fluoro-2′-(4-methyl-4H-1,2,4-triazol-3-yl)-[1,1′-biphenyl]-3-yl)-7-(trifluoromethyl)benzo[d]oxazol-5-amine]
IC50 [1]: 200 to 1000 nM | IC50 [2]: < 200 nM | EC50 [3]: 1000 to 10000 nM

O[C@H]1CCC[C@H]1NCc1cc(C(F)(F)F)c2oc(-c3cccc(-c4ccc(F)cc4-c4nnco4)c3)nc2c1 [IG-6, (1S,2R)-2-(((2-(4′-Fluoro-2′-(1,3,4-oxadiazol-2-yl)-[1,1′-biphenyl]-3-yl)-7-(trifluoromethyl)benzo[d]oxazol-5-yl)methyl)amino)cyclopentan-1-ol]
IC50 [1]: < 200 nM | IC50 [2]: < 200 nM | EC50 [3]: 200 to 1000 nM

COc1cc(CN[C@@H]2CCC[C@@H]2O)cn2nc(-c3cccc(-c4ccc(F)cc4-c4nncn4C)c3)nc12 [IH-9, (1S,2R)-2-(((2-(4′-Fluoro-2′-(4-methyl-4H-1,2,4-triazol-3-yl)-[1,1′-biphenyl]-3-yl)-8-methoxy-[1,2,4]triazolo[1,5-a]pyridin-6-yl)methyl)amino)cyclopentan-1-ol]
IC50 [1]: < 200 nM | IC50 [2]: < 200 nM | EC50 [3]: 200 to 1000 nM

CC(=O)NCc1cc(C(F)(F)F)c2oc(-c3cccc(-c4ccc(F)cc4-c4nncn4C)c3)nc2c1 [II-1, N-((2-(4′-Fluoro-2′-(4-methyl-4H-1,2,4-triazol-3-yl)-[1,1′-biphenyl]-3-yl)-7-(trifluoromethyl)benzo[d]oxazol-5-yl)methyl)acetamide]
IC50 [1]: 200 to 1000 nM | IC50 [2]: 1000 to 10000 nM | EC50 [3]: 1000 to 10000 nM

Cc1cc(CNCC2(O)CCC2)cc2nc(-c3cccc(-c4ccc(F)cc4-c4nncn4C)c3)oc12 [IJ-1, 1-((((2-(4′-Fluoro-2′-(4-methyl-4H-1,2,4-triazol-3-yl)-[1,1′-biphenyl]-3-yl)-7-methylbenzo[d]oxazol-5-yl)methyl)amino)methyl)cyclobutan-1-ol]
IC50 [1]: < 200 nM | IC50 [2]: < 200 nM | EC50 [3]: < 200 nM

Cc1cc(CNCC(C)(C)O)cc2nc(-c3cccc(-c4ccc(F)cc4-c4nncn4C)c3)oc12 [IK-1, 1-(((2-(4′-Fluoro-2′-(4-methyl-4H-1,2,4-triazol-3-yl)-[1,1′-biphenyl]-3-yl)-7-methylbenzo[d]oxazol-5-yl)methyl)amino)-2-methylpropan-2-ol]
IC50 [1]: < 200 nM | IC50 [2]: < 200 nM | EC50 [3]: < 200 nM

Cn1cnnc1-c1cc(F)ccc1-c1cccc(-c2nc3cc(CN4C[C@@H]5C[C@H]4CO5)cc(C(F)(F)F)c3o2)c1 [IN-2, 5-(((1S,4S)-2-Oxa-5-azabicyclo[2.2.1]heptan-5-yl)methyl)-2-(4′-fluoro-2′-(4-methyl-4H-1,2,4-triazol-3-yl)-[1,1′-biphenyl]-3-yl)-7-(trifluoromethyl)benzo[d]oxazole]
IC50 [1]: 1000 to 10000 nM | IC50 [2]: 1000 to 10000 nM | EC50 [3]: 1000 to 10000 nM

Cn1cnnc1-c1cc(F)ccc1-c1cccc(-c2nc3cc(CN[C@@H]4CCC[C@@H]4O)c(F)cc3o2)c1 [IP-7, (1S,2R)-2-(((6-Fluoro-2-(4′-fluoro-2′-(4-methyl-4H-1,2,4-triazol-3-yl)-[1,1′-biphenyl]-3-yl)benzo[d]oxazol-5-yl)methyl)amino)cyclopentan-1-ol]
IC50 [1]: < 200 nM | IC50 [2]: < 200 nM | EC50 [3]: < 200 nM

Cc1cc(CN[C@@H]2CCC[C@@H]2O)c(F)c2nc(-c3cccc(-c4ccc(F)cc4-c4nncn4C)c3)oc12 [IQ-8, (1S,2R)-2-(((4-Fluoro-2-(4′-fluoro-2′-(4-methyl-4H-1,2,4-triazol-3-yl)-[1,1′-biphenyl]-3-yl)-7-methylbenzo[d]oxazol-5-yl)methyl)amino)cyclopentan-1-ol]
IC50 [1]: < 200 nM | IC50 [2]: < 200 nM | EC50 [3]: < 200 nM

COCCNCc1cc2nc(-c3cccc(-c4ccc(F)cc4-c4nncn4C)c3)oc2cc1F [IR-1, N-((6-Fluoro-2-(4′-fluoro-2′-(4-methyl-4H-1,2,4-triazol-3-yl)-[1,1′-biphenyl]-3-yl)benzo[d]oxazol-5-yl)methyl)-2-methoxyethan-1-amine]
IC50 [1]: 200 to 1000 nM | IC50 [2]: < 200 nM | EC50 [3]: 200 to 1000 nM
